Common to all, as to format: cell-based
The subject of experiment [1] is Clostridium butyricum M-II588. Conditions: 1 w/v% carbohydrate, anaerobic, 37°C; for hydrogen generation (hydrogen production amount): 24 hours, calculated from increased amount of gas × hydrogen concentration (FIG. 6); for increased amount of gas: preculture 5 v/v%, 24 hours (FIG. 5).
The subject of experiment [2] is Clostridium butyricum M-II588. To be noted: 1 w/v% carbohydrate, sugar-free medium, anaerobic, 37°C, 20 hours; compared to other carbohydrates (FIG. 1).
Experiment [3] has as its system Staphylococcus aureus IFO 12732. The experiment can be described thus: Anti-bacterial action: Staphylococcus aureus count in (co-)culture, dilution plate technique. To be noted: 20 hours, 37°C, anaerobic; 0.5 w/v% α-CD; butyric acid bacteria 9.4×10^6 CFU/mL; S. aureus 7.5×10^2 CFU/mL (FIG. 4). How it is done:
Culture of Staphylococcus aureus alone, Staphylococcus aureus and 0.5 w/v% α-CD in coexistence, Staphylococcus aureus and butyric acid bacteria in coexistence, or Staphylococcus aureus and butyric acid bacteria in coexistence with 0.5 w/v% α-CD added was performed at 37°C under an anaerobic condition, and the number of Staphylococcus aureus was counted 20 hours after the start of culture. The amount of Staphylococcus aureus added was 7.5×10^2 CFU/mL as the final concentration, and the amount of butyric acid bacteria added was 9.4×10^6 CFU/mL as the final concentration. The number of Staphylococcus aureus was measured by the dilution plate technique, that is, spreading a moderately diluted culture solution on an agar medium, culturing it at 37°C under an aerobic condition, and counting the number of colonies formed. The test results are shown as mean ± standard error of three samples.

For experiment [4], the system named is Clostridium butyricum M-II588. Conditions: 1 w/v% carbohydrate, anaerobic, 37°C, 20 hours.

For `OC[C@H]1O[C@@H](O[C@H]2[C@H](O)[C@@H](O)[C@@H](O[C@]3(CO)O[C@H](CO)[C@@H](O)[C@@H]3O)O[C@@H]2CO)[C@H](O)[C@@H](O)[C@H]1O` [LS, Lactosucrose, reference compound], in experiment [1], the “hydrogen generation (hydrogen production amount)” value is reported as “very little” and the “increased amount of gas” value is listed as “very little”.
For α-cyclodextrin [α-CD], the “proliferation of butyric acid bacteria (turbidity change (ΔOD) at 660 nm)” value in experiment [2] is “significantly promoted”. In experiment [3], the “proliferation of Staphylococcus aureus (number of Staphylococcus aureus)” value is on record as “almost no proliferation inhibiting effect”. Further, in experiment [1], the “hydrogen generation (hydrogen production amount)” value is reported as “hydrogen was generated” and the “increased amount of gas” value is “significantly increased”. Besides, in experiment [4] (compared to other carbohydrates (FIG. 2)), the “production of butyric acid” value is “significantly promoted”. For the same compound, in experiment [4] (compared to other carbohydrates (FIG. 3)), the “production of acetic acid” value was “significantly promoted”.

The record behind these values is patent publication EP4285989A1 (priority 2021, dated 2022).
